What was measured:
Assay in all cases: KINOMEscan competition binding
Conditions in all cases: compound 10.0 µM
MAP3K10 (human) = MAP3K10 (human) (UniProt Q02779)
EPHA6 (human) = EPHA6 (human) (UniProt Q9UF33)
CDK11A (human) = CDK11A (human) (UniProt Q9UQ88)
EPHB2 (human) = EPHB2 (human) (UniProt P29323)
MAPKAPK2 (human) = MAPKAPK2 (human) (UniProt P49137)
NTRK3 (human) = NTRK3 (human) (UniProt Q16288)
GSK3B (human) = GSK3B (human) (UniProt P49841)
DDR2 (human) = DDR2 (human) (UniProt Q16832)
PIK3CA (human) = PIK3CA (human) (UniProt P42336)
[1] = system: EGFR (human), P00533 [L861Q]
CSNK1G2 (human) = CSNK1G2 (human) (UniProt P78368)
PAK4 (human) = PAK4 (human) (UniProt O96013)
Chain of PAK4 (human) (O96013 whole entry, looked up): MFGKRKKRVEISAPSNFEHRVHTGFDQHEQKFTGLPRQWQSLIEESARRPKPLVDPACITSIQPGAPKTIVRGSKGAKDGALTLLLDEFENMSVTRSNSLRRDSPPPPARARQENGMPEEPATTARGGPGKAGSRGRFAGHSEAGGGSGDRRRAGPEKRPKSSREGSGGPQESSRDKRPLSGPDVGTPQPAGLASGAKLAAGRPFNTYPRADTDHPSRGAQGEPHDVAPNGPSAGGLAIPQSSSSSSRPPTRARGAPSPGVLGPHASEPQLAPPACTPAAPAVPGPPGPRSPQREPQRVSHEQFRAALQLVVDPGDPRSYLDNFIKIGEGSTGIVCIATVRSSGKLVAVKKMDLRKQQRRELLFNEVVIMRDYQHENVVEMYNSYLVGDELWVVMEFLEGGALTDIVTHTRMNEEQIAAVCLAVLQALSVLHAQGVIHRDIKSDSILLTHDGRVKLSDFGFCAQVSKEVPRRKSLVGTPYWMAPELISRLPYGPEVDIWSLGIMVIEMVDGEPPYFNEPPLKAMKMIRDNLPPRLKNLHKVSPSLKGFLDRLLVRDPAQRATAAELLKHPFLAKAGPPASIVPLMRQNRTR

CAMK2G (human) = CAMK2G (human) (UniProt Q13555)
MAP3K11 (human) = MAP3K11 (human) (UniProt Q16584)
PRKAA1 (human) = PRKAA1 (human) (UniProt Q13131)
MARK1 (human) = MARK1 (human) (UniProt Q9P0L2)
Chain of MARK1 (human) (Q9P0L2 whole entry, looked up): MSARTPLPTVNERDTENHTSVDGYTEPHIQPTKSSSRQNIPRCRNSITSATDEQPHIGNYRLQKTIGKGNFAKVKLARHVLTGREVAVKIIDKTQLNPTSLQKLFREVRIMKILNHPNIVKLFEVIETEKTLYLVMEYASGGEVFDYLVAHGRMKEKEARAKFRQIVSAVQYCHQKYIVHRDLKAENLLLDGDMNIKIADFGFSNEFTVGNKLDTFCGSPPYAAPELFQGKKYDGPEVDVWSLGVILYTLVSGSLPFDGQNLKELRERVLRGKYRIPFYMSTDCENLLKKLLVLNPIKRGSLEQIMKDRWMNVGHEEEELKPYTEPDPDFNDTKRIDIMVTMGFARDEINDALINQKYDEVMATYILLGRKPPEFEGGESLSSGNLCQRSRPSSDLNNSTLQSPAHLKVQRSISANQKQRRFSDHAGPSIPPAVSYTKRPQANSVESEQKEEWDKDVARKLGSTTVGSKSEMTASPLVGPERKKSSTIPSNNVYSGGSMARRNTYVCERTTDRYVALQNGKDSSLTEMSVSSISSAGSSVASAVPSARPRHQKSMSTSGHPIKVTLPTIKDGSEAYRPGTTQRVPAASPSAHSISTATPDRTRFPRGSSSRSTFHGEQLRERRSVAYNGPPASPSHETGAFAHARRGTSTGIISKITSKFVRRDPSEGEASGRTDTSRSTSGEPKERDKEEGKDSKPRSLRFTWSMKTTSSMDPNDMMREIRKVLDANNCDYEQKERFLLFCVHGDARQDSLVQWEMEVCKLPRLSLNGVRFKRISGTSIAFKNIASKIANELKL

RPS6KA2 KD1 (human) = RPS6KA2 KD1 (human) (UniProt Q15349)
NEK5 (human) = NEK5 (human) (UniProt Q6P3R8)
PRKACB (human) = PRKACB (human) (UniProt P22694)
NEK7 (human) = NEK7 (human) (UniProt Q8TDX7)
Chain of NEK7 (human) (Q8TDX7 whole entry, looked up): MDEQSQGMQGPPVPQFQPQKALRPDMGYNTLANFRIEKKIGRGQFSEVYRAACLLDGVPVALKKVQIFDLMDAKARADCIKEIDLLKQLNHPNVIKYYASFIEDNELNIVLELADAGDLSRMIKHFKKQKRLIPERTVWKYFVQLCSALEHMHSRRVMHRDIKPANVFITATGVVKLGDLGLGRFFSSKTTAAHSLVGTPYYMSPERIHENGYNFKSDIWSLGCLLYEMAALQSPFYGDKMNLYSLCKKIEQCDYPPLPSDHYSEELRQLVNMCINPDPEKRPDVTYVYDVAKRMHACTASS

YES1 (human) = YES1 (human) (UniProt P07947)
TSSK1B (human) = TSSK1B (human) (UniProt Q9BXA7)
WEE2 (human) = WEE2 (human) (UniProt P0C1S8)
FER (human) = FER (human) (UniProt P16591)
Chain of FER (human) (P16591 whole entry, looked up): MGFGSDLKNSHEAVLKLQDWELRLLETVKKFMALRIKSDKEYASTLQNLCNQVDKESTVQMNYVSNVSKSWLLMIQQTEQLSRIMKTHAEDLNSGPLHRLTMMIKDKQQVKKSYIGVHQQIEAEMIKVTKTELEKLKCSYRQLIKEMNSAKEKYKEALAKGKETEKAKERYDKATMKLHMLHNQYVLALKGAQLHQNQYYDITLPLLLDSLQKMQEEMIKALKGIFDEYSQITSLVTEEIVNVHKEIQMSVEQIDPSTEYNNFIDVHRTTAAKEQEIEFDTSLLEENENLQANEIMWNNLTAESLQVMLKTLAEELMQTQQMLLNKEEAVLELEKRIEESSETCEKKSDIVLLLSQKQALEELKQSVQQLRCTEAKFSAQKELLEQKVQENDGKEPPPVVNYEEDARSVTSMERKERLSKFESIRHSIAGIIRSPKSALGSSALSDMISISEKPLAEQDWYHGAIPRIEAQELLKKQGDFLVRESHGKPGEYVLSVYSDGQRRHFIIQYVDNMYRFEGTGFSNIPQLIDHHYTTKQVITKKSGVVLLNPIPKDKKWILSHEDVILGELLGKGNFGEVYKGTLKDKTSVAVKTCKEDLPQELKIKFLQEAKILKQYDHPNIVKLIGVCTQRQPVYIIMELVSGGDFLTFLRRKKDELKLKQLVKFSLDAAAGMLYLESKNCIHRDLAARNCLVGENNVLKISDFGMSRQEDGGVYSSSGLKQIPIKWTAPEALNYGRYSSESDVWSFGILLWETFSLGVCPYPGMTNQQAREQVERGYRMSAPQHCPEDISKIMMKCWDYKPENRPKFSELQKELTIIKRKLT

AXL (human) = AXL (human) (UniProt P30530)
TLK2 (human) = TLK2 (human) (UniProt Q86UE8)
PAK1 (human) = PAK1 (human) (UniProt Q13153)
Chain of PAK1 (human) (Q13153 whole entry, looked up): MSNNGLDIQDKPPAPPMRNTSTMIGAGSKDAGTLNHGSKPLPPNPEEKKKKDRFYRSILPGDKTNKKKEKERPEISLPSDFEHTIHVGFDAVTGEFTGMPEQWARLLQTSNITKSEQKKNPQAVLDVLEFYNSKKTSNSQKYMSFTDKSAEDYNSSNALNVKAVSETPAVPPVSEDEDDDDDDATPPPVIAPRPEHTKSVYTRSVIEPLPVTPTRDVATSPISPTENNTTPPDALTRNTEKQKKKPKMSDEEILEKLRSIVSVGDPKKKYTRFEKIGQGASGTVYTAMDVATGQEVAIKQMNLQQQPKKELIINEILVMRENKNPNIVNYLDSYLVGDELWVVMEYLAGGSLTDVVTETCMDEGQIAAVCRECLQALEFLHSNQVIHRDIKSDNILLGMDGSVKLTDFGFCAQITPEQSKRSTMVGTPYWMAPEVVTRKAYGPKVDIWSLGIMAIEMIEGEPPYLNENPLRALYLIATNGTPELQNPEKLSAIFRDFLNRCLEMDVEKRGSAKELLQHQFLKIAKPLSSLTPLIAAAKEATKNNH

NEK9 (human) = NEK9 (human) (UniProt Q8TD19)
Chain of NEK9 (human) (Q8TD19 whole entry, looked up): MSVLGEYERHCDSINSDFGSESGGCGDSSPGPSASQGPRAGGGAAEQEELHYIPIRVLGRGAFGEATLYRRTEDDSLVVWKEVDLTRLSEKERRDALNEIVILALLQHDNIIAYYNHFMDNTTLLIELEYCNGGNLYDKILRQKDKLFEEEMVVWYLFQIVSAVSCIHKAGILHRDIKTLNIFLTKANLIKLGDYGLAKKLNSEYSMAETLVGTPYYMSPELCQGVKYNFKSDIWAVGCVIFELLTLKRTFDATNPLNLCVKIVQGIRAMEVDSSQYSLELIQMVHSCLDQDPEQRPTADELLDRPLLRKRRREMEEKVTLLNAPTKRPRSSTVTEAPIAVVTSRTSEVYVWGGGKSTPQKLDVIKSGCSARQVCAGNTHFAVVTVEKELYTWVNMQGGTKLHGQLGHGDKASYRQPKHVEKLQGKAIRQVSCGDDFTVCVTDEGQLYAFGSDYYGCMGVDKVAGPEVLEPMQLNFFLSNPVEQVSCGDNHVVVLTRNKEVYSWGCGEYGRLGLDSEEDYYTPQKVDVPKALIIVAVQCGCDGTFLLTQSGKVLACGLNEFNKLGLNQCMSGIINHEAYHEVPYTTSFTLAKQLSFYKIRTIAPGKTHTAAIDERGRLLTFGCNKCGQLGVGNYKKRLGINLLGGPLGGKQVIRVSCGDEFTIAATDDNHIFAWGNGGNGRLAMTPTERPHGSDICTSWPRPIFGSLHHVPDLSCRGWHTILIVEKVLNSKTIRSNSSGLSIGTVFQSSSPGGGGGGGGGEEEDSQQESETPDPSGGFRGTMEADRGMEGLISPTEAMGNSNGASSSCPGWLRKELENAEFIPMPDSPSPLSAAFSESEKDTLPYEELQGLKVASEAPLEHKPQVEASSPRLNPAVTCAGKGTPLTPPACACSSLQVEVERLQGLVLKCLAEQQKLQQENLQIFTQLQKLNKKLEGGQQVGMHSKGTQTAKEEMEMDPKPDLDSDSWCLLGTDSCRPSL

EPHA5 (human) = EPHA5 (human) (UniProt P54756)
CDK9 (human) = CDK9 (human) (UniProt P50750)
FGFR2 (human) = FGFR2 (human) (UniProt P21802)
[2] = system: EGFR (human), P00533 [752-759 del]
NEK1 (human) = NEK1 (human) (UniProt Q96PY6)
MYO3B (human) = MYO3B (human) (UniProt Q8WXR4)
EPHA1 (human) = EPHA1 (human) (UniProt P21709)
PAK2 (human) = PAK2 (human) (UniProt Q13177)
CDC42BPA (human) = CDC42BPA (human) (UniProt Q5VT25)
MARK3 (human) = MARK3 (human) (UniProt P27448)
ADCK4 (human) = ADCK4 (human) (UniProt Q96D53)
MAP2K2 (human) = MAP2K2 (human) (UniProt P36507)
[3] = system: ABL1 (human), P00519 [H396P]
MAP3K12 (human) = MAP3K12 (human) (UniProt Q12852)

Chain of CDK11A (human) (Q9UQ88 whole entry, looked up): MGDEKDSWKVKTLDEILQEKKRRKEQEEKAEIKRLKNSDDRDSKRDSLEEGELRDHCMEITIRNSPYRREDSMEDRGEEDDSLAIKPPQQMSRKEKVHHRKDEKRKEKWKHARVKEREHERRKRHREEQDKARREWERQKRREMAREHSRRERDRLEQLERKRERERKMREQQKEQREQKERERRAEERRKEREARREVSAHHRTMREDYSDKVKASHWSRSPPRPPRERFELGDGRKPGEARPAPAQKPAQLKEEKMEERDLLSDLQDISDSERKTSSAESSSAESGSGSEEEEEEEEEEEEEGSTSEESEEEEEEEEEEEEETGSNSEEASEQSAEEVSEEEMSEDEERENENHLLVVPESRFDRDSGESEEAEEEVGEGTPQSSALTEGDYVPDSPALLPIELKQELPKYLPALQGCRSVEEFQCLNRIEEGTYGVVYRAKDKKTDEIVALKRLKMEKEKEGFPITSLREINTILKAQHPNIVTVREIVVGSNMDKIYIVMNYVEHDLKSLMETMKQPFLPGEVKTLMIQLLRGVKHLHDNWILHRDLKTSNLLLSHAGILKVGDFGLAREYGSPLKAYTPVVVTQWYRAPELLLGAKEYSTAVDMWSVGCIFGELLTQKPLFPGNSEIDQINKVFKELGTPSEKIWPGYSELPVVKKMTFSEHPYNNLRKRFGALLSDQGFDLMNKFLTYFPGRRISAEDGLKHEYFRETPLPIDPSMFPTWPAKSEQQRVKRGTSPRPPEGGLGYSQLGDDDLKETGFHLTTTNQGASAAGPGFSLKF

**Q.** Which results are given for COc1cc(N2CCN(C)CC2)ccc1Nc1ncc2c(n1)N(C)c1ccccc1N(C)C2=O?
**A.** kinase still bound, per cent of control (MAP3K10 (human)): 100%; kinase still bound, per cent of control (EPHA6 (human)): 100%; kinase still bound, per cent of control (CDK11A (human)): 80%; kinase still bound, per cent of control (EPHB2 (human)): 68%; kinase still bound, per cent of control (MAPKAPK2 (human)): 95%; kinase still bound, per cent of control (NTRK3 (human)): 79%; kinase still bound, per cent of control (GSK3B (human)): 82%; kinase still bound, per cent of control (DDR2 (human)): 100%; kinase still bound, per cent of control (PIK3CA (human)): 100%; kinase still bound, per cent of control [1]: 85%; kinase still bound, per cent of control (CSNK1G2 (human)): 100%; kinase still bound, per cent of control (PAK4 (human)): 100%; kinase still bound, per cent of control (CAMK2G (human)): 95%; kinase still bound, per cent of control (MAP3K11 (human)): 100%; kinase still bound, per cent of control (PRKAA1 (human)): 92%; kinase still bound, per cent of control (MARK1 (human)): 86%; kinase still bound, per cent of control (RPS6KA2 KD1 (human)): 82%; kinase still bound, per cent of control (NEK5 (human)): 100%; kinase still bound, per cent of control (PRKACB (human)): 100%; kinase still bound, per cent of control (NEK7 (human)): 81%; kinase still bound, per cent of control (YES1 (human)): 100%; kinase still bound, per cent of control (TSSK1B (human)): 53%; kinase still bound, per cent of control (WEE2 (human)): 100%; kinase still bound, per cent of control (FER (human)): 80%; kinase still bound, per cent of control (AXL (human)): 95%; kinase still bound, per cent of control (TLK2 (human)): 96%; kinase still bound, per cent of control (PAK1 (human)): 92%; kinase still bound, per cent of control (NEK9 (human)): 97%; kinase still bound, per cent of control (EPHA5 (human)): 99%; kinase still bound, per cent of control (CDK9 (human)): 100%; kinase still bound, per cent of control (FGFR2 (human)): 100%; kinase still bound, per cent of control [2]: 100%; kinase still bound, per cent of control (NEK1 (human)): 96%; kinase still bound, per cent of control (MYO3B (human)): 89%; kinase still bound, per cent of control (EPHA1 (human)): 100%; kinase still bound, per cent of control (PAK2 (human)): 94%; kinase still bound, per cent of control (CDC42BPA (human)): 100%; kinase still bound, per cent of control (MARK3 (human)): 98%; kinase still bound, per cent of control (ADCK4 (human)): 82%; kinase still bound, per cent of control (MAP2K2 (human)): 100%; kinase still bound, per cent of control [3]: 100%; kinase still bound, per cent of control (MAP3K12 (human)): 100%

**Q.** How did the kinase still bound, per cent of control (MAP3K10 (human)) turn out when COc1cc(N2CCC(O)CC2)ccc1Nc1ncc2c(n1)N1CCc3cccc(c31)C(=O)N2C was run?
**A.** 100%

**Q.** And the kinase still bound, per cent of control (EPHA6 (human))?
**A.** 82%

**Q.** What about the kinase still bound, per cent of control (CDK11A (human)) of the same compound?
**A.** 100%

**Q.** What about the kinase still bound, per cent of control (EPHB2 (human)) of the same compound?
**A.** 94%

**Q.** And the kinase still bound, per cent of control (MAPKAPK2 (human))?
**A.** 100%

**Q.** And the kinase still bound, per cent of control (NTRK3 (human))?
**A.** 93%

**Q.** And the kinase still bound, per cent of control (GSK3B (human))?
**A.** 91%

**Q.** And the kinase still bound, per cent of control (DDR2 (human))?
**A.** 90%

**Q.** What about the kinase still bound, per cent of control (PIK3CA (human)) of the same compound?
**A.** 84%

**Q.** And the kinase still bound, per cent of control [1]?
**A.** 64%

**Q.** What about the kinase still bound, per cent of control (CSNK1G2 (human)) of the same compound?
**A.** 100%

**Q.** What about the kinase still bound, per cent of control (PAK4 (human)) of the same compound?
**A.** 90%

**Q.** What about the kinase still bound, per cent of control (CAMK2G (human)) of the same compound?
**A.** 80%

**Q.** And the kinase still bound, per cent of control (MAP3K11 (human))?
**A.** 100%

**Q.** What about the kinase still bound, per cent of control (PRKAA1 (human)) of the same compound?
**A.** 84%

**Q.** And the kinase still bound, per cent of control (MARK1 (human))?
**A.** 95%

**Q.** And the kinase still bound, per cent of control (RPS6KA2 KD1 (human))?
**A.** 77%

**Q.** And the kinase still bound, per cent of control (NEK5 (human))?
**A.** 81%

**Q.** And the kinase still bound, per cent of control (PRKACB (human))?
**A.** 100%

**Q.** What about the kinase still bound, per cent of control (NEK7 (human)) of the same compound?
**A.** 98%

**Q.** What about the kinase still bound, per cent of control (YES1 (human)) of the same compound?
**A.** 99%

**Q.** What about the kinase still bound, per cent of control (TSSK1B (human)) of the same compound?
**A.** 74%

**Q.** And the kinase still bound, per cent of control (WEE2 (human))?
**A.** 87%

**Q.** What about the kinase still bound, per cent of control (FER (human)) of the same compound?
**A.** 74%

**Q.** What about the kinase still bound, per cent of control (AXL (human)) of the same compound?
**A.** 100%

**Q.** And the kinase still bound, per cent of control (TLK2 (human))?
**A.** 94%

**Q.** And the kinase still bound, per cent of control (PAK1 (human))?
**A.** 83%

**Q.** And the kinase still bound, per cent of control (NEK9 (human))?
**A.** 77%

**Q.** What about the kinase still bound, per cent of control (EPHA5 (human)) of the same compound?
**A.** 88%

**Q.** What about the kinase still bound, per cent of control (CDK9 (human)) of the same compound?
**A.** 100%

**Q.** And the kinase still bound, per cent of control (FGFR2 (human))?
**A.** 95%

**Q.** And the kinase still bound, per cent of control [2]?
**A.** 81%

**Q.** And the kinase still bound, per cent of control (NEK1 (human))?
**A.** 60%

**Q.** What about the kinase still bound, per cent of control (MYO3B (human)) of the same compound?
**A.** 77%

**Q.** And the kinase still bound, per cent of control (EPHA1 (human))?
**A.** 100%

**Q.** What about the kinase still bound, per cent of control (PAK2 (human)) of the same compound?
**A.** 67%

**Q.** And the kinase still bound, per cent of control (CDC42BPA (human))?
**A.** 100%

**Q.** What about the kinase still bound, per cent of control (MARK3 (human)) of the same compound?
**A.** 88%

**Q.** What about the kinase still bound, per cent of control (ADCK4 (human)) of the same compound?
**A.** 86%

**Q.** What about the kinase still bound, per cent of control (MAP2K2 (human)) of the same compound?
**A.** 99%

**Q.** What about the kinase still bound, per cent of control [3] of the same compound?
**A.** 100%

**Q.** What about the kinase still bound, per cent of control (MAP3K12 (human)) of the same compound?
**A.** 71%

From the kinase profiling compilation of Christmann-Franck et al. (2016)
